Legend:
[1] = target: T1, mutant auxin receptor (TIR1 F79G) (Arabidopsis thaliana, UniProt Q570C0, F79G); assay: Evaluation of binding to auxin receptor (yeast two-hybrid assay), mutant TIR1 F79G; conditions: for mut TIR: minimum concentration of the test compound in which the well turns blue: yeast EGY48, LacZ reporter, X-gal, 30° C. for 3 days, TIR1 F79G with AUX/IAA protein
T1 construct: expressed in transfected cells; host or cells: Saccharomyces cerevisiae strain EGY48
Text: (§1) Test Example 1: Evaluation of Binding to Auxin Receptor (Yeast Two-Hybrid Assay
(§2) Specifically, the inventors set up the assay in the following manner.
Yeast strain EGY48 was transformed into a plasmid (pSH18-34) containing a LacZ expression cassette (LexA-operon: LacZ reporter) that is transcriptionally regulated by the LexA-operon, a plasmid derived from pGLex313 containing an expression cassette of LexA-DNA-binding domain fusion protein A (the wild-type auxin receptor: SEQ ID NO. 1, or mutant auxin receptor (TIR1 F79G) where the amino acid residue 79 (phenylalanine) in the wild-type is mutated to a glycine: SEQ ID NO. 2), and a plasmid derived from pJG4-5 containing an expression cassette of B42 transcription activator fusion protein B (AUX/IAA protein: SEQ ID NO: 3). The transformant was cultured at 30° C. on an agar plate made of yeast growth medium (minimal SD base and -His/-Trp/-Ura dropout supplement). The colonies were picked up and incubated overnight in liquid SD/-His/-Trp/-Ura medium at 30° C. Afterwards, the medium was replaced with a liquid medium composed of minimal SD/Gal/Raf base, -His/-Trp/-Ura dropout supplement, 50 mM Na-phosphate buffer (pH 7.0), […] X-gal, and various concentrations of test compounds. After incubation at 30° C. for 3 days, the medium containing yeast was transferred to a white 96-well plate (flat bottom) and observed. The lower the concentration of the test compound when blue color appears, the higher the binding between the test compound and the auxin receptor (wild type or mutant) is. Conversely, higher the concentration of test compound when the blue color appears for the first time, the lower the binding between the test compound and the auxin receptor (wild type or mutant).
(§3) In Table 1, the concentration of “wt TIR” indicates the minimum concentration of the test compound in which the well turns blue when the wild type auxin receptor is used, whereas the concentration of “mut” indicates the minimum concentration of the test compound in which the well turns blue when the mutant auxin receptor (TIR1 F79G) is used.

[2] = target: T2, wild-type auxin receptor (TIR1) (Arabidopsis thaliana, UniProt Q570C0); assay: Evaluation of binding to auxin receptor (yeast two-hybrid assay), wild-type receptor; conditions: yeast EGY48, LacZ reporter, X-gal, 30° C. for 3 days; wild type auxin receptor with AUX/IAA protein
T2 construct: expressed in transfected cells; host or cells: Saccharomyces cerevisiae strain EGY48
T2 sequence (Q570C0 1-594): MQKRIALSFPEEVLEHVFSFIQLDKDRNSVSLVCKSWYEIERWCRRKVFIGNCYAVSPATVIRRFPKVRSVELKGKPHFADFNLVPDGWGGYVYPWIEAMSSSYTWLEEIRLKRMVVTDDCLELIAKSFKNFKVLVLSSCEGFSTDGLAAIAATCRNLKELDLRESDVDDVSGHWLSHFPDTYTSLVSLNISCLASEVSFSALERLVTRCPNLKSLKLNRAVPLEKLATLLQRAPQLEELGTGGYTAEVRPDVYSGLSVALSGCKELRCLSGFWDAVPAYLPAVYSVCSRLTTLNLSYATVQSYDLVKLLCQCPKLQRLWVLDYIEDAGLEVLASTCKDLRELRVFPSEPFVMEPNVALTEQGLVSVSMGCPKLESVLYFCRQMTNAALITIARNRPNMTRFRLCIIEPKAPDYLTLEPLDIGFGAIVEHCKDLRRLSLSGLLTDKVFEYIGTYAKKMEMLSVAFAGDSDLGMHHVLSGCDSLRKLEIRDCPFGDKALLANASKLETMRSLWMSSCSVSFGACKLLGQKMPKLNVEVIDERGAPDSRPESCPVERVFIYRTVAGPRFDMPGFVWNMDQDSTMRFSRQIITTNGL
T2 sequence (Q38822 1-93 partner limits assumed): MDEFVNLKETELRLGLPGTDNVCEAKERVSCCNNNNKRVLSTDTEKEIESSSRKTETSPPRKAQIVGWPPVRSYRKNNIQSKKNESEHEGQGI
Protocol: as §1, §2
The transformant was cultured at 30° C. on an agar plate made of yeast growth medium (minimal SD base and -His/-Trp/-Ura dropout supplement). The colonies were picked up and incubated overnight in liquid SD/-His/-Trp/-Ura medium at 30° C. Afterwards, the medium was replaced with a liquid medium composed of minimal SD/Gal/Raf base, -His/-Trp/-Ura dropout supplement, 50 mM Na-phosphate buffer (pH 7.0), […] X-gal, and various concentrations of test compounds. After incubation at 30° C. for 3 days, the medium containing yeast was transferred to a white 96-well plate (flat bottom) and observed.
as §3

T1 sequence (Q570C0 whole entry F79G, one chain of several): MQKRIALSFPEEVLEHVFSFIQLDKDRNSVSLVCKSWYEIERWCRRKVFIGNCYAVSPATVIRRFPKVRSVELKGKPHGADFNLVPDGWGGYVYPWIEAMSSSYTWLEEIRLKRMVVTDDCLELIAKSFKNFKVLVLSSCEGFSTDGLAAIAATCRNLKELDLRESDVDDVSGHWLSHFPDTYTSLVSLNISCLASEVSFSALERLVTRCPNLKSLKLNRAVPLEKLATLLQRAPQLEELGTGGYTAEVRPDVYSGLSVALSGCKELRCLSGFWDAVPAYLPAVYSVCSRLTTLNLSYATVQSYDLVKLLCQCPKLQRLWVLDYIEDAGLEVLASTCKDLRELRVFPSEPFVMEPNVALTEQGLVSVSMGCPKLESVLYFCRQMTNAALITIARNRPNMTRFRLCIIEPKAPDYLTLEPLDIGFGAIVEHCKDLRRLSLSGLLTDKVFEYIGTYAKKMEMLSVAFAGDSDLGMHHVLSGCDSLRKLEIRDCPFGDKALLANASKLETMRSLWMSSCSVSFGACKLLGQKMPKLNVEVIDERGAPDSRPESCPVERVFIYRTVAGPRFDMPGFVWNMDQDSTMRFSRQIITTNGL

Row | Structure (SMILES) | mut TIR: minimum concentration of the test compound in which the well turns blue [1] | wt TIR: minimum concentration of the test compound in which the well turns blue [2] | binding affinity of the mutant auxin receptor (TIR1 F79G) relative to that of the wild type auxin receptor ([1]; ratio mutant / wild type, from Table 1)
1 | O=C(O)Cc1c[nH]c2ccc(-c3ccc4ccccc4c3)cc12 [Example 27D, 5-(2-naphthyl)-indole-3-acetic acid] | 0.1 µM | 10 µM | 
2 | Cc1cccc(-c2ccc3[nH]cc(CC(=O)O)c3c2)c1 [MK-190, 2-(5-(m-tolyl)-1H-indol-3-yl)acetic acid] | 0.1 µM | 10 µM | 
3 | O=C(O)Cc1c[nH]c2ccccc12 [Indole-3-acetic acid, indole-3-acetic acid, reference compound] | >100 µM | 0.1 µM | less than 1/1000
4 | COc1ccc(-c2ccc3[nH]cc(CC(=O)O)c3c2)cc1C [MK-214, 2-(5-(4-methoxy-3-methylphenyl)-1H-indol-3-yl)acetic acid] | 10 µM | 100 µM | 
5 | Cc1ccc(-c2ccc3[nH]cc(CC(=O)O)c3c2)cc1C [MK-230, 2-(5-(3,4-dimethylphenyl)-1H-indol-3-yl)acetic acid] | 0.1 µM | 10 µM | 
6 | O=C(O)Cc1c[nH]c2cc(-c3ccc4c(c3)OCO4)ccc12 [MK-247, 2-(6-(benzo[d][1,3]dioxol-5-yl)-1H-indol-3-yl)acetic acid] | 0.1 µM | 10 µM | 
7 | CC(C)(C)c1ccc(-c2ccc3[nH]cc(CC(=O)O)c3c2)cc1 [MK-198, 2-(5-(4-(tert-butyl)phenyl)-1H-indol-3-yl) acetic acid] | 10 µM | 100 µM | 
8 | Cc1ccc(C)c(-c2ccc3[nH]cc(CC(=O)O)c3c2)c1 [MK-221, 2-(5-(2,5-dimethylphenyl)-1H-indol-3-yl)acetic acid] | 10 µM | >100 µM | 
9 | CCC(C)COc1ccc2[nH]cc(CC(=O)O)c2c1 (centres unmarked) [MK-322, 2-(5-(2-methylbutoxy)-1H-indol-3-yl)acetic acid] | 0.1 µM | 10 µM | 
10 | Cc1ccc(Cl)cc1-c1ccc2[nH]cc(CC(=O)O)c2c1 [MK-309, 2-(5-(5-chloro-2-methylphenyl)-1H-indol-3-yl)acetic acid] | 10 µM | 100 µM | 
11 | O=C(O)Cc1c[nH]c2cc(-c3ccccc3-c3ccccc3)ccc12 [MK-232, 2-(6-([1,1′-biphenyl]-2-yl)-1H-indol-3-yl)acetic acid] | 10 µM | 100 µM | 
12 | Cc1cc(C)cc(-c2ccc3[nH]cc(CC(=O)O)c3c2)c1 [MK-379, 2-(5-(3,5-dimethylphenyl)-1H-indol-3-yl)acetic acid] | 1 µM | 100 µM | 
13 | Cc1ccc(COc2ccc3[nH]cc(CC(=O)O)c3c2)cc1 [MK-350, 2-(5-((4-methylbenzyl)oxy)-1H-indol-3-yl)acetic acid] | 100 µM | >100 µM | 
14 | CCOc1cccc(-c2ccc3[nH]cc(CC(=O)O)c3c2)c1 [MK-211, 2-(5-(3-ethoxyphenyl)-1H-indol-3-yl)acetic acid] | 10 µM | 100 µM | 
15 | O=C(O)Cc1c[nH]c2ccc(-c3cc4ccccc4s3)cc12 [Compound 14, 2-(5-(Benzo[b]thiophen-2-yl)-1H-indol-3-yl)acetic acid] | 0.01 µM | >1 µM | 
16 | COc1cccc(-c2ccc3[nH]cc(CC(=O)O)c3c2)c1 [Example 27B, 5-(3-methoxyphenyl)-indole-3-acetic acid] | 1 µM | 100 µM | 
17 | O=C(O)Cc1c[nH]c2ccc(OCC3CCCCC3)cc12 [MK-333, 2-(5-(cyclohexylmethoxy)-1H-indol-3-yl)acetic acid] | 0.1 µM | 100 µM | 
18 | CCCCOc1ccc2[nH]cc(CC(=O)O)c2c1 [RY-215, 2-(5-(butyloxy)-1H-indol-3-yl)acetic acid, reference compound] | 0.1 µM | 10 µM | 
19 | O=C(O)Cc1c[nH]c2ccc(-c3cc(Cl)ccc3Cl)cc12 [MK-308, 2-(5-(2,5-dichlorophenyl)-1H-indol-3-yl)acetic acid] | 10 µM | 100 µM | 
20 | Cc1ccccc1-c1ccc2[nH]cc(CC(=O)O)c2c1 [MK-189, 2-(5-(o-tolyl)-1H-indol-3-yl)acetic acid] | 0.1 µM | 10 µM | 
21 | O=C(O)Cc1c[nH]c2cc(-c3cccc(Oc4ccccc4)c3)ccc12 [MK-248, 2-(6-(3-phenoxyphenyl)-1H-indol-3-yl)acetic acid] | 0.1 µM | 10 µM | 
22 | O=C(O)Cc1c[nH]c2ccc(-c3ccccc3)cc12 [Example 42A, 5-(2-Phenyl)-indole-3-acetic acid] | 0.01 µM | 1 µM | 
23 | Cc1ccc(Cl)c(-c2ccc3[nH]cc(CC(=O)O)c3c2)c1 [MK-307, 2-(5-(2-chloro-5-methylphenyl)-1H-indol-3-yl)acetic acid] | 10 µM | >100 µM | 
